The subject of data set [1] is Candida albicans. Nature of the data set: Antifungal activity against Candida albicans K1 assessed as inhibition of fungal growth. It is filed as functional.
Data set [2] is described as follows: Stability in PBS at pH 7.4 assessed as half life by HPLC analysis. In kind it is physicochemical.
A short description of data set [3]: Stability in human plasma in PBS at pH 7.4 assessed as half life by HPLC analysis. It is filed as ADME, cell-free.
Data set [4] concerns Candida albicans. Nature of the data set: Antifungal activity against Candida albicans ATCC90028 infected in Galleria mellonella larvae assessed as increase in larval survival at 15 mg/kg measured after 6 days. The conditions noted are these: time 6.0 day. In kind it is functional, organism-based.
Data set [5] concerns Aspergillus fumigatus. Nature of the data set: Antifungal activity against Aspergillus fumigatus ATCC204305 infected in Galleria mellonella larvae assessed as increase in larval survival at 15 mg/kg measured after 6 days. It is filed as functional, organism-based. Particulars: time 6.0 day.
The nature of data set [6]: Toxicity in Galleria mellonella larvae assessed as larvae death at 15 mg/kg measured for 144 hrs. In kind it is organism-based. The conditions noted are these: in vivo.
Data set [7] is described as follows: Toxicity in human HEK293 cells assessed as effect on polymerized actin pattern at 50 uM incubated for 24 hrs by phalloidin conjugated AlexaFluor-488 staining based confocal microscopic analysis. It is filed as cell-based. Particulars: hek293, 24 h.
Data set [8] in a line: Toxicity in human HEK293 cells assessed as reduction in cell confluency at 50 uM incubated for 24 hrs by mitotracker red staining based confocal microscopic analysis. Particulars: hek293, 24 h. Further details: scale not given: the % may be the effect or the level left.
Data set [9] can be described thus: Toxicity in human HEK293 cells assessed as effect on cell viability at 50 uM incubated for 24 hrs by confocal microscopic analysis. In kind it is cell-based. The conditions noted are these: hek293, 24 h.
Data set [10] deals with HEK293. Kind of data set: Cytotoxicity against human HEK293 cells at 12.5 uM incubated for 24 hrs by Hoechst 33258 staining based flow cytometry. Particulars: hek293, 24 h. In kind it is toxicity, cell-based. On the technique in general: Flow cytometry measures light scatter and fluorescence of single cells or particles in a stream.
Data set [11] deals with Aspergillus fumigatus. Nature of the data set: Antifungal activity against Aspergillus fumigatus assessed as inhibition of fungal growth by serial dilution assay. It is filed as functional.
Data set [12] deals with Candida albicans. Kind of data set: Antifungal activity against Candida albicans ATCC90028 infected in Galleria mellonella larvae assessed as larval survival at 15 mg/kg measured after 6 days. Particulars: time 6 day. In kind it is functional.
The nature of data set [13]: Toxicity in Galleria mellonella larvae assessed as effect on survival at 15 mg/kg measured for 144 hrs. It is filed as organism-based. The conditions noted are these: in vivo.
Data set [14] is described as follows: Cytotoxicity against human HEK293 cells assessed as cell viability at 100 uM incubated for 24 hrs by Hoechst 33258 staining based flow cytometry. In kind it is toxicity. The conditions noted are these: read-out: Activity.
Data set [15] has as its system HEK293. Nature of the data set: Cytotoxicity against human HEK293 cells at 6.25 to 12.5 uM incubated for 24 hrs by Hoechst 33258 staining based flow cytometry. In kind it is toxicity, cell-based. The conditions noted are these: hek293, 24 h, dose 6.25-12.5 µM.
Data set [16] is described as follows: Toxicity in human HEK293 cells assessed as effect on polymerized actin signal at 50 uM incubated for 24 hrs by phalloidin conjugated AlexaFluor-488 staining based confocal microscopic analysis. In kind it is cell-based. Particulars: hek293, 24 h.
Data set [17] can be described thus: Toxicity in human HEK293 cells assessed as effect on mitochondrial morphology at 50 uM incubated for 24 hrs by mitotracker red staining based confocal microscopic analysis. In kind it is cell-based. The conditions noted are these: hek293, 24 h.
The test system of data set [18] is Candida albicans. Nature of the data set: Antifungal activity against Candida albicans assessed as inhibition of fungal growth by serial dilution assay. It is filed as functional.
Data set [19] deals with HEK293. Nature of the data set: Cytotoxicity against human HEK293 cells at 6.25 to 100 uM incubated for 24 hrs by Hoechst 33258 staining based flow cytometry. In kind it is toxicity, cell-based. The conditions noted are these: hek293, 24 h, dose 6.25-100 µM.
Data set [20] concerns Candida albicans. Kind of data set: Antifungal activity against Candida albicans ATCC90028 infected in Galleria mellonella larvae assessed as larval survival at 15 mg/kg measured after 72 hrs. In kind it is functional.
The nature of data set [21]: Toxicity in human HEK293 cells assessed as reduction in cell viability at 50 uM incubated for 24 hrs by mitotracker red staining based confocal microscopic analysis. The conditions noted are these: hek293, 24 h.
Data set [22] relates to Aspergillus fumigatus. Kind of data set: Antifungal activity against Aspergillus fumigatus ATCC204305 infected in Galleria mellonella larvae assessed as larval survival at 15 mg/kg measured after 6 days. The conditions noted are these: time 6 day. In kind it is functional.
For data set [23], the system named is Candida albicans. Nature of the data set: Antifungal activity against Candida albicans SN250 assessed as inhibition of fungal growth by broth dilution assay. In kind it is functional. (In general: Dilution methods test growth across graded concentrations, often in twofold steps.)
A short description of data set [24]: Toxicity in human HEK293 cells assessed as effect on adherent cells at 6.25 uM incubated for 24 hrs by confocal microscopic analysis. In kind it is cell-based. The conditions noted are these: hek293, 24 h.
Data set [25] in a line: Toxicity in human HEK293 cells assessed as effect on cell morphology at 6.25 uM incubated for 24 hrs by confocal microscopic analysis. It is filed as cell-based. The conditions noted are these: hek293, 24 h.
Data set [26] in a line: Toxicity in human HEK293 cells assessed as effect on cell physiology at 6.25 uM incubated for 24 hrs by confocal microscopic analysis. It is filed as cell-based. Particulars: hek293, 24 h.

SMILES strings stand for the structures. ≈ marks a conversion by molar mass, not a printed value. Calls of active or inactive are those of the source. The rule behind the calls is not given here. Bounds are passed on as bounds.

For orientation: MIC means the least concentration at which growth counts as inhibited. As usually defined, the half-life is the time in which the quantity being followed falls by half. One may read the MIC90 as the lowest concentration that inhibits either 90% of growth or 90% of the strains tested, depending on the study.

With `C[C@@H]1[C@H](O)[C@@H](C)/C=C/C=C/C=C/C=C/C=C/C=C/C=C/[C@H](O[C@@H]2O[C@H](C)[C@@H](O)[C@H](N)[C@@H]2O)C[C@@H]2O[C@](O)(C[C@@H](O)C[C@@H](O)[C@H](O)CC[C@@H](O)C[C@@H](O)CC(=O)O[C@H]1C)C[C@H](O)[C@H]2NC(=O)NCCN`, the MIC in the data set on Candida albicans [1] worked out at 500 µg/mL (≈ 510 µM).

For `CCOP(=O)(OCCOC(C)=O)Oc1ccc(COC(=O)N[C@@H]2[C@H](O)[C@H](O[C@H]3/C=C/C=C/C=C/C=C/C=C/C=C/C=C/[C@H](C)[C@@H](O)[C@@H](C)[C@H](C)OC(=O)C[C@H](O)C[C@H](O)CC[C@@H](O)[C@H](O)C[C@H](O)C[C@]4(O)C[C@H](O)[C@@H](C(=O)O)[C@H](C3)O4)O[C@H](C)[C@H]2O)cc1` (stereo partly drawn), the half-life was 35 h in data set [2] and 1.3 h in data set [3]. The outcome in the data set with Candida albicans [4] and in the data set on Aspergillus fumigatus [5] was Active. Moreover, the Activity result in data set [6] was “Toxic”; in data set [7], “Non-toxic”; in [8], ~ 50%; in data set [9], “Non-toxic”; in the data set on HEK293 [10], “Toxic”; in the data set with Candida albicans [12], 10%. For the same compound, the Activity entry in data set [13] was “Non-toxic”; in the data set on HEK293 [15] it was “Toxic”; in [16] it was “Non-toxic”; in data set [17], “Non-toxic”. Also, in the data set with Aspergillus fumigatus [11], the MIC90 was over 16 µg/mL. The viability at 24 h, 100 µM in [14] was about 86%.

For `CCOC(=O)[C@H](C)OP(=O)(OCC)Oc1ccc(COC(=O)OCOC(=O)[C@H]2[C@@H]3C[C@@H](O[C@@H]4O[C@H](C)[C@@H](O)[C@H](N)[C@@H]4O)/C=C/C=C/C=C/C=C/C=C/C=C/C=C/[C@H](C)[C@@H](O)[C@@H](C)[C@H](C)OC(=O)C[C@H](O)C[C@H](O)CC[C@@H](O)[C@H](O)C[C@H](O)C[C@](O)(C[C@@H]2O)O3)cc1` (stereo partly drawn), the half-life in data set [2] is 2.8 h; in data set [3] it was 2.2 h. Besides, the MIC90 in the data set on Candida albicans [18] and with Aspergillus fumigatus [11] was 2 µg/mL (≈ 1.52 µM) throughout. Further, the result in the data set with Candida albicans [4] and in the data set on Aspergillus fumigatus [5] was Active. Also, the Activity result with HEK293 [19] is listed as “Toxic”; with Candida albicans [20] it was 70%; with HEK293 [10], “Toxic”; in the data set on Candida albicans [12], 40%; in data set [13], “Non-toxic”; in the data set on HEK293 [15], “Toxic”. Further, the Activity entry in data set [21] is recorded as “Toxic”.

On to `CCOC(=O)[C@H](C)OP(=O)(OCC)Oc1ccc(COC(=O)N[C@@H]2[C@H](O)[C@H](O[C@H]3/C=C/C=C/C=C/C=C/C=C/C=C/C=C/[C@H](C)[C@@H](O)[C@@H](C)[C@H](C)OC(=O)C[C@H](O)C[C@H](O)CC[C@@H](O)[C@H](O)C[C@H](O)C[C@]4(O)C[C@H](O)[C@@H](C(=O)O)[C@H](C3)O4)O[C@H](C)[C@H]2O)cc1` (stereo partly drawn), for which the figures for the half-life in [2] and in data set [3] were 18 h and 4.5 h, respectively. The Activity in the data set on Aspergillus fumigatus [22] is listed as 40%; in data set [7], “Non-toxic”; in [8], ~ 50%; in data set [9], “Non-toxic”; in the data set with HEK293 [10], “Toxic”; in the data set on Candida albicans [12], 10%. Also, the Activity result is “Non-toxic” in data set [13], “Toxic” in the data set on HEK293 [15], “Non-toxic” in data set [16] and “Non-toxic” in data set [17]. For the same compound, the outcome in the data set with Candida albicans [4] and in the data set on Aspergillus fumigatus [5] was Active. The MIC90 in the data set with Aspergillus fumigatus [11] is over 16 µg/mL. Moreover, the viability at 24 h, 100 µM in data set [14] was about 78%.

Regarding `CC(C)OC(=O)OCOC(=O)[C@H]1[C@@H]2C[C@@H](O[C@@H]3O[C@H](C)[C@@H](O)[C@H](N)[C@@H]3O)/C=C/C=C/C=C/C=C/C=C/C=C/C=C/[C@H](C)[C@@H](O)[C@@H](C)[C@H](C)OC(=O)C[C@H](O)C[C@H](O)CC[C@@H](O)[C@H](O)C[C@H](O)C[C@](O)(C[C@@H]1O)O2`, the half-life in data set [2] is 7.6 h; in data set [3] it was 3.3 h. Further, the MIC90 was 2 µg/mL (≈ 1.92 µM) with Candida albicans [18] and over 16 µg/mL in the data set with Aspergillus fumigatus [11]. In addition, the result with Candida albicans [4] and with Aspergillus fumigatus [5] was Active. Further, the Activity result is given as “Non-toxic” in the data set with HEK293 [19]; ~ 10% in data set [8]; “Toxic” with HEK293 [10]; 10% in the data set with Candida albicans [12]; “Non-toxic” in data set [13]; “Toxic” with HEK293 [15].

On to `C[C@@H]1[C@H](O)[C@@H](C)/C=C/C=C/C=C/C=C/C=C/C=C/C=C/[C@H](O[C@@H]2O[C@H](C)[C@@H](O)[C@H](N)[C@@H]2O)C[C@@H]2O[C@](O)(C[C@@H](O)C[C@@H](O)[C@H](O)CC[C@@H](O)C[C@@H](O)CC(=O)O[C@H]1C)C[C@H](O)[C@H]2NC(=O)C(CO)CO`, for which, in the data set with Candida albicans [23], the MIC worked out at 120 µg/mL (≈ 120 µM).

As to `C[C@@H]1[C@H](O)[C@@H](C)/C=C/C=C/C=C/C=C/C=C/C=C/C=C/[C@H](O[C@@H]2O[C@H](C)[C@@H](O)[C@H](N)[C@@H]2O)C[C@@H]2O[C@](O)(C[C@@H](O)C[C@@H](O)[C@H](O)CC[C@@H](O)C[C@@H](O)CC(=O)O[C@H]1C)C[C@H](O)[C@H]2C(=O)O` [AMPHOTERICIN B], the Activity result in data set [24], in [25] and in data set [26] was “Toxic” in each case. Moreover, the viability at 24 h, 100 µM in data set [14] is 0%.
